The NIST ThermoML archive (doi:10.1016/j.jct.2005.05.007)
Numbers after ± are expanded uncertainties.

Assays:
[1] = 298.15 K; 101.33 kPa; Liquid; Vibrating tube method
[2] = refractive index (Na D-line) (dimensionless); details: 298.15 K; 101.33 kPa; Liquid; Standard Abbe refractometry
[3] = xn = mol fraction of the nth substance listed; details: 298.15 K, 101 kPa, Liquid, Vibrating tube method

CCCCO [butan-1-ol]
Details	mass density [kg/m3]	refractive index
[1]	805.8 ± 0.8	–
[2]	–	1.397 ± 0.0008

CCO [ethanol]
Details	mass density [kg/m3]	refractive index
[1]	785.1 ± 0.4	–
[2]	–	1.3593 ± 0.0008

CO [methanol]
Details	mass density [kg/m3]	refractive index
[1]	786.6 ± 0.4	–
[2]	–	1.3265 ± 0.0008

CCCCCO [pentan-1-ol]
Details	mass density [kg/m3]	refractive index
[1]	810.8 ± 0.8	–
[2]	–	1.4078 ± 0.0008

CCCO [propan-1-ol]
Details	mass density [kg/m3]	refractive index
[1]	799.6 ± 0.4	–
[2]	–	1.3834 ± 0.0008

CC(C)O [propan-2-ol]
Details	mass density [kg/m3]	refractive index
[1]	780.9 ± 0.4	–
[2]	–	1.3748 ± 0.0008

CCC#N [propanenitrile]
Details	mass density [kg/m3]	refractive index
[1]	776.8 ± 0.4	–
[2]	–	1.3633 ± 0.0008

CCC#N [propanenitrile] + CC(C)O
[3]
Details	mass density [kg/m3]
x2 = 0.0579	776.1 ± 0.4
x2 = 0.0955	775.8 ± 0.4
x2 = 0.1396	775.5 ± 0.4
x2 = 0.183	775.4 ± 0.4
x2 = 0.2321	775.3 ± 0.4
x2 = 0.2775	775.4 ± 0.4
x2 = 0.3274	775.5 ± 0.4
x2 = 0.3784	775.6 ± 0.4
x2 = 0.4249	775.8 ± 0.4
x2 = 0.4768	776 ± 0.4
x2 = 0.5385	776.4 ± 0.4
x2 = 0.5752	776.6 ± 0.4
x2 = 0.6307	777 ± 0.4
x2 = 0.6763	777.4 ± 0.4
x2 = 0.7286	777.9 ± 0.4
x2 = 0.7788	778.4 ± 0.4
x2 = 0.8384	779.1 ± 0.4
x2 = 0.8929	779.7 ± 0.4
x2 = 0.9416	780.2 ± 0.4

CCC#N [propanenitrile] + CCCCCO
[3]
Details	mass density [kg/m3]
x2 = 0.0353	778.3 ± 0.4
x2 = 0.0649	779.6 ± 0.5
x2 = 0.1026	781.1 ± 0.5
x2 = 0.1379	782.6 ± 0.5
x2 = 0.1786	784.2 ± 0.5
x2 = 0.2164	785.7 ± 0.5
x2 = 0.2613	787.5 ± 0.5
x2 = 0.3031	789.1 ± 0.5
x2 = 0.3464	790.7 ± 0.6
x2 = 0.3917	792.4 ± 0.6
x2 = 0.4396	794.1 ± 0.6
x2 = 0.489	795.8 ± 0.6
x2 = 0.5444	797.7 ± 0.6
x2 = 0.6012	799.5 ± 0.7
x2 = 0.6547	801.2 ± 0.7
x2 = 0.7186	803.2 ± 0.7
x2 = 0.7788	804.9 ± 0.7
x2 = 0.8488	806.9 ± 0.8
x2 = 0.9162	808.7 ± 0.8

CCC#N [propanenitrile] + CCCCO
[3]
Details	mass density [kg/m3]
x2 = 0.0391	778 ± 0.4
x2 = 0.1177	780.4 ± 0.4
x2 = 0.1625	781.8 ± 0.4
x2 = 0.1984	782.9 ± 0.4
x2 = 0.2481	784.4 ± 0.4
x2 = 0.3398	787.4 ± 0.4
x2 = 0.385	788.7 ± 0.4
x2 = 0.4364	790.2 ± 0.4
x2 = 0.4813	791.6 ± 0.4
x2 = 0.539	793.3 ± 0.4
x2 = 0.5821	794.6 ± 0.4
x2 = 0.6363	796.2 ± 0.4
x2 = 0.7036	798.1 ± 0.4
x2 = 0.7441	799.2 ± 0.4
x2 = 0.8103	801 ± 0.4
x2 = 0.8795	802.8 ± 0.4
x2 = 0.9334	804.1 ± 0.4

CCC#N [propanenitrile] + CCCO
[3]
Details	mass density [kg/m3]
x2 = 0.0465	777.6 ± 0.4
x2 = 0.0955	778.5 ± 0.4
x2 = 0.143	779.4 ± 0.4
x2 = 0.1882	780.3 ± 0.4
x2 = 0.2387	781.4 ± 0.4
x2 = 0.2837	782.4 ± 0.4
x2 = 0.3347	783.6 ± 0.4
x2 = 0.3775	784.6 ± 0.4
x2 = 0.4341	786 ± 0.4
x2 = 0.4827	787.2 ± 0.4
x2 = 0.5841	789.7 ± 0.4
x2 = 0.6371	791 ± 0.4
x2 = 0.7389	793.5 ± 0.4
x2 = 0.7795	794.5 ± 0.4
x2 = 0.8329	795.8 ± 0.4
x2 = 0.8919	797.2 ± 0.4
x2 = 0.9355	798.2 ± 0.4

CCC#N [propanenitrile] + CCO
[3]
Details	mass density [kg/m3]
x2 = 0.0627	776.8 ± 0.4
x2 = 0.129	777 ± 0.4
x2 = 0.1754	777.2 ± 0.4
x2 = 0.2486	777.6 ± 0.4
x2 = 0.2872	777.9 ± 0.4
x2 = 0.3419	778.4 ± 0.4
x2 = 0.3978	778.9 ± 0.4
x2 = 0.4563	779.5 ± 0.4
x2 = 0.5001	780 ± 0.4
x2 = 0.5577	780.6 ± 0.4
x2 = 0.6025	781.1 ± 0.4
x2 = 0.6433	781.6 ± 0.4
x2 = 0.6925	782.2 ± 0.4
x2 = 0.7416	782.7 ± 0.4
x2 = 0.7823	783.2 ± 0.4
x2 = 0.8218	783.6 ± 0.4
x2 = 0.8737	784.2 ± 0.4
x2 = 0.9146	784.6 ± 0.4
x2 = 0.9565	784.9 ± 0.4

CCC#N [propanenitrile] + CO
[3]
Details	mass density [kg/m3]
x2 = 0.0822	777.3 ± 0.4
x2 = 0.1672	777.9 ± 0.4
x2 = 0.2338	778.4 ± 0.4
x2 = 0.2992	779 ± 0.4
x2 = 0.3634	779.7 ± 0.4
x2 = 0.4258	780.3 ± 0.4
x2 = 0.4879	781 ± 0.4
x2 = 0.5403	781.6 ± 0.4
x2 = 0.5844	782.1 ± 0.4
x2 = 0.6226	782.6 ± 0.4
x2 = 0.6752	783.3 ± 0.4
x2 = 0.7183	783.8 ± 0.4
x2 = 0.763	784.4 ± 0.4
x2 = 0.7996	784.8 ± 0.4
x2 = 0.8366	785.3 ± 0.4
x2 = 0.8743	785.8 ± 0.4
x2 = 0.9088	786.1 ± 0.4
x2 = 0.9384	786.3 ± 0.4
x2 = 0.9696	786.5 ± 0.4
